In ChEMBL document CHEMBL5316357, “Discovery of Linvencorvir (RG7907), a Hepatitis B Virus Core Protein Allosteric Modulator, for the Treatment of Chronic HBV Infection” (J Med Chem, 2023):

Tests used:
[1] = Cmax in female Wistar Han rat at 10 mg/kg,po by LC-MS/MS analysis; type: ADME, organism-based; parameters: dose 10 mg/kg, route po; conditions: in vivo
[2] = AUC (0-infinity) in mouse plasma at 1 mg/kg,iv; type: ADME, organism-based; parameters: dose 1 mg/kg, route iv; conditions: in vivo
[3] = Oral bioavailability in mouse plasma at 3 mg/kg; type: ADME, organism-based; conditions: in vivo
[4] = Volume of distribution at steady state in Wistar Han rat at 2 mg/kg,iv by LC-MS/MS analysis; type: ADME, organism-based; conditions: in vivo, read-out: Vdss
[5] = Cmax in male minipig at 30 mg/kg,po by LC-MS/MS analysis; type: ADME, organism-based, Sus scrofa domesticus; parameters: dose 30 mg/kg, route po; conditions: pig, in vivo
[6] = Cmax in female Wistar Han rat at 30 mg/kg,po by LC-MS/MS analysis; type: ADME, organism-based; parameters: dose 30 mg/kg, route po; conditions: in vivo
[7] = Tmax in male minipig at 3 mg/kg,po by LC-MS/MS analysis; type: ADME, organism-based, Sus scrofa domesticus; conditions: pig, in vivo
[8] = Tmax in female Wistar Han rat at 30 mg/kg,po by LC-MS/MS analysis; type: ADME, organism-based; conditions: in vivo
[9] = Tmax in female minipig at 10 mg/kg,po by LC-MS/MS analysis; type: ADME, organism-based, Sus scrofa domesticus; conditions: pig, in vivo
[10] = Half life in male cynomolgus monkey at 10 mg/kg,po by LC-MS/MS analysis; type: ADME, organism-based, Macaca fascicularis; conditions: in vivo
[11] = AUClast in male cynomolgus monkey at 3 mg/kg,po by LC-MS/MS analysis; type: ADME, organism-based, Macaca fascicularis; parameters: dose 3 mg/kg, route po; conditions: in vivo
[12] = AUClast in female cynomolgus monkey at 10 mg/kg,po by LC-MS/MS analysis; type: ADME, organism-based, Macaca fascicularis; parameters: dose 10 mg/kg, route po; conditions: in vivo
[13] = Oral bioavailability in male Wistar Han rat at 10 mg/kg by LC-MS/MS analysis; type: ADME, organism-based; conditions: in vivo
[14] = Oral bioavailability in male cynomolgus monkey at 10 mg/kg by LC-MS/MS analysis; type: ADME, organism-based, Macaca fascicularis; conditions: in vivo
[15] = Oral bioavailability in male minipig at 30 mg/kg by LC-MS/MS analysis; type: ADME, organism-based, Sus scrofa domesticus; conditions: pig, in vivo
Cytochrome P450 2C9 = Cytochrome P450 2C9 (Homo sapiens, UniProt P11712); assay: Inhibition of CYP2C9 (unknown origin); type: ADME
Cytochrome P450 2C9, sequence (P11712 whole entry): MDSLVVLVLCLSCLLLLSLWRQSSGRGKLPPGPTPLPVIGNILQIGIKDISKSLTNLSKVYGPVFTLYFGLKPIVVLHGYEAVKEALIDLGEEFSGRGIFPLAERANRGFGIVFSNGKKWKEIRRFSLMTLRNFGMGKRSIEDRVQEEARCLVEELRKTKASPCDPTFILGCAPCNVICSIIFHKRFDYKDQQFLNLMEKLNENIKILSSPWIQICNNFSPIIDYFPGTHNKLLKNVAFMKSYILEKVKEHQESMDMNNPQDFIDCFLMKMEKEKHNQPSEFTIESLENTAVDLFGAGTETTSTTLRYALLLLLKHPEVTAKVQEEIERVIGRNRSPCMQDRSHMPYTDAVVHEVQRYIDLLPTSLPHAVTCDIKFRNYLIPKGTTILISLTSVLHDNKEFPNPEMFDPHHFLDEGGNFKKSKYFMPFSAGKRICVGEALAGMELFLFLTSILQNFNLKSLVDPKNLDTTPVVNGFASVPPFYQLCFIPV

## CCOC(=O)C1=C(CN2CCN3C(=O)N(CC(C)(C)C(=O)O)C[C@@H]3C2)NC(c2nccs2)=N[C@H]1c1cccc(F)c1C [LINVENCORVIR]
[1]
  Cmax: 683 ng/mL
[2]
  AUC: 837 ng·h/mL
[3]
  F: 33%
[4]
  Vd: 1.34 L/kg
[5]
  Cmax: 768 ng/mL
[6]
  Cmax: 3310 ng/mL
[7]
  Tmax: 0.5 h
[8]
  Tmax: 2 h
[9]
  Tmax: 0.5 h
[10]
  half-life: 6.64 h
[11]
  AUC(0-t): 280 ng·h/mL
[12]
  AUC(0-t): 1060 ng·h/mL
[13]
  bioavailability: 26.2%
[14]
  bioavailability: 15.8%
[15]
  bioavailability: 20.6%
Cytochrome P450 2C9
  IC50: > 50 µM
